These results are taken from ChEMBL document CHEMBL1201862, “PubChem BioAssay data set” (2004).

SMILES strings stand for the structures.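 Assay format: 96-well plates, 48-hour exposure. GI50: concentration for 50% inhibition of growth.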 Active and inactive are the calls of the source. Rule as the data show it: active = GI50 up to about 1.1 µM and inactive = higher.

Among the test systems are Hs-578T; NCI-H226; CAKI-1; U-251; COLO 205; UACC-257; MCF7; NCI/ADR-RES; SF-539; NCI-H460; A549; IGROV-1; HOP-92; SF-268; SK-OV-3; LOX IMVI; OVCAR-8; KM12; MDA-N; DU-145.
Common to all, as to test: DTP human tumour cell line panel, 48 h

For `CCOc1cc2c(cc1O)/C(=N\O)C[C@@H]1[C@@H]2CC[C@]2(C)[C@@H](O)CC[C@@H]12`, the GI50 in the experiment on Hs-578T is < 0.0221 µM (active); with NCI-H226, 0.0817 µM (active); in the experiment with CAKI-1, < 0.0235 µM (active); with U-251, 0.018 µM (active); in the experiment on COLO 205 it was 8.79 µM (inactive); in the experiment on UACC-257 it was 33.3 µM (inactive). In addition, the GI50 in the experiment on MCF7 is < 0.0195 µM (active); in the experiment on NCI/ADR-RES, < 0.0276 µM (active); with SF-539 it was 0.00256 µM (active); in the experiment on NCI-H460 it was < 0.0198 µM (active); with A549, 0.0521 µM (active); in the experiment with IGROV-1, 0.628 µM (active). Besides, the GI50 was 0.00782 µM (active) in the experiment with HOP-92; < 0.031 µM (active) with SF-268; 0.0374 µM (active) in the experiment with SK-OV-3; < 0.0363 µM (active) in the experiment on LOX IMVI; < 0.028 µM (active) in the experiment with OVCAR-8; 0.168 µM (active) in the experiment with KM12. The GI50 with MDA-N is 0.0123 µM (active); in the experiment with DU-145, < 0.0197 µM (active).

Regarding `CC1CC[C@@]2(OC1)OC1C[C@H]3[C@@H]4CC=C5C[C@@H](OC6OC(CO)C(OC7OC(CO)C(O)C(O)C7O)C(O)C6OC6OC(C)C(O)C(O)C6O)CC[C@]5(C)[C@H]4CC[C@]3(C)C1[C@@H]2C` (some centres undefined), the concentration for 50% growth inhibition (GI50) in the experiment with Hs-578T is 0.714 µM (active); with NCI-H226 it was 0.873 µM (active); in the experiment on CAKI-1, 0.76 µM (active); in the experiment on U-251, 0.493 µM (active); with COLO 205, 0.526 µM (active); in the experiment on UACC-257, 0.526 µM (active). Further, the GI50 in the experiment on MCF7 is 0.587 µM (active); with NCI/ADR-RES, 2.07 µM (inactive); with SF-539, 0.491 µM (active); in the experiment with NCI-H460, 0.685 µM (active); with A549, 0.746 µM (active); in the experiment with IGROV-1, 0.516 µM (active). Besides, the GI50 with HOP-92 is 0.729 µM (active); in the experiment on SF-268, 0.593 µM (active); with SK-OV-3 it was 3.3 µM (inactive); in the experiment on LOX IMVI, 0.462 µM (active); in the experiment on OVCAR-8 it was 0.659 µM (active); in the experiment on KM12 it was 0.547 µM (active). Moreover, the GI50 in the experiment with MDA-N is 0.863 µM (active); in the experiment with DU-145, 0.476 µM (active).

As to `Cc1ccnc2c1C(=O)C1=C(OC(C)(C)CC1O)C2=O` (centres undefined), the GI50 with Hs-578T is 2.81 µM (inactive); in the experiment with NCI-H226, 6.08 µM (inactive); in the experiment with CAKI-1, 6.01 µM (inactive); in the experiment on U-251 it was 3.34 µM (inactive); in the experiment with COLO 205, 2.41 µM (inactive); in the experiment on UACC-257 it was 1.74 µM (inactive). The GI50 with MCF7 was 2.56 µM (inactive); with NCI/ADR-RES, 2.78 µM (inactive); in the experiment on SF-539, 3.41 µM (inactive); with NCI-H460 it was 2.9 µM (inactive); in the experiment on A549, 8.77 µM (inactive); in the experiment on IGROV-1, 3.03 µM (inactive). For the same molecule, the GI50 in the experiment on HOP-92 was 10.1 µM (inactive); with SF-268, 1.79 µM (inactive); in the experiment on SK-OV-3, 13.7 µM (inactive); with LOX IMVI, 2.56 µM (inactive); with OVCAR-8, 2.83 µM (inactive); in the experiment on KM12, 3.27 µM (inactive). Moreover, the figures for the GI50 with MDA-N and in the experiment with DU-145 were 1.45 µM (inactive) and 6.4 µM (inactive), respectively.

With `CC1=C(C(=O)OCCO[N+](=O)[O-])C(c2cccc([N+](=O)[O-])c2)C(C(=O)OC(C)C)=C(C)N1` (centres undefined), the GI50 is 7.71 µM (inactive) with Hs-578T; 8.95 µM (inactive) in the experiment on NCI-H226; 17.6 µM (inactive) with CAKI-1; 14.9 µM (inactive) in the experiment on U-251; 10.7 µM (inactive) in the experiment on COLO 205; 12.3 µM (inactive) in the experiment with UACC-257. In addition, the GI50 in the experiment on MCF7 was 19.6 µM (inactive); in the experiment with NCI/ADR-RES it was 10.5 µM (inactive); in the experiment with SF-539, 14.2 µM (inactive); in the experiment on NCI-H460, 13.8 µM (inactive); in the experiment with A549 it was 12.9 µM (inactive); with IGROV-1 it was 14 µM (inactive). Further, the GI50 in the experiment with HOP-92 was 11 µM (inactive); in the experiment with SF-268, 13.1 µM (inactive); in the experiment on SK-OV-3, 16.7 µM (inactive); in the experiment on LOX IMVI, 16.9 µM (inactive); in the experiment on OVCAR-8, 16.1 µM (inactive); in the experiment with KM12, 11 µM (inactive). For the same molecule, the values for the GI50 in the experiment on MDA-N and with DU-145 were 14.9 µM (inactive) and 25.3 µM (inactive), respectively.

For `CCOC(=O)C(C)(C(=O)OCC)/C(Cl)=C\Cl`, the GI50 was > 100 µM (inactive) in the experiment with Hs-578T; > 100 µM (inactive) with NCI-H226; > 100 µM (inactive) in the experiment on CAKI-1; > 100 µM (inactive) in the experiment on COLO 205; > 100 µM (inactive) in the experiment with UACC-257; 84.7 µM (inactive) in the experiment with MCF7. For the same molecule, the GI50 in the experiment on NCI/ADR-RES is > 100 µM (inactive); in the experiment on SF-539, > 100 µM (inactive); in the experiment on NCI-H460, 22.6 µM (inactive); in the experiment with A549 it was 33.7 µM (inactive); with IGROV-1, > 100 µM (inactive); in the experiment with HOP-92, > 100 µM (inactive). In addition, the GI50 with SF-268, in the experiment with SK-OV-3, in the experiment with LOX IMVI, in the experiment on OVCAR-8, in the experiment with KM12 and with MDA-N was > 100 µM (inactive) each time. Besides, in the experiment with DU-145, the GI50 is > 100 µM (inactive).

On to `COC(=O)c1cc2c(cc1Cl)Sc1nnc(Nc3ccc(C)cc3)n1S2(=O)=O`, for which the GI50 in the experiment with Hs-578T was 4.9 µM (inactive); in the experiment with NCI-H226 it was 12.1 µM (inactive); in the experiment on CAKI-1, 10.4 µM (inactive); with U-251, 3.87 µM (inactive); with COLO 205 it was 4.84 µM (inactive); in the experiment on UACC-257, 12.2 µM (inactive). Besides, the GI50 in the experiment on MCF7 was 3.72 µM (inactive); in the experiment with NCI/ADR-RES, 11.1 µM (inactive); with SF-539 it was 1.17 µM (inactive); in the experiment on NCI-H460, 11.6 µM (inactive); with A549, 15.4 µM (inactive); in the experiment with IGROV-1, 2.15 µM (inactive). For the same molecule, the GI50 is 3.66 µM (inactive) in the experiment on HOP-92; 3.6 µM (inactive) with SF-268; 11.9 µM (inactive) with SK-OV-3; 10.5 µM (inactive) with OVCAR-8; 5.57 µM (inactive) with KM12; 6.44 µM (inactive) in the experiment with MDA-N. In addition, the GI50 with DU-145 was 2.65 µM (inactive).

`O=C(NCCO)c1c(O)c2ccccc2[nH]c1=O`: the GI50 in the experiment on Hs-578T, in the experiment on NCI-H226, in the experiment on CAKI-1, with U-251, in the experiment with COLO 205 and in the experiment with UACC-257 was > 100 µM (inactive) in each case. For the same molecule, the GI50 in the experiment with MCF7, with NCI/ADR-RES, with SF-539, in the experiment with NCI-H460, in the experiment with A549 and in the experiment with IGROV-1 was > 100 µM (inactive) in each case. For the same molecule, the GI50 with HOP-92, with SF-268, in the experiment on LOX IMVI, in the experiment with OVCAR-8, with KM12 and in the experiment with MDA-N was > 100 µM (inactive) each time. Further, the GI50 in the experiment with DU-145 was > 100 µM (inactive).

For `C=C1CCCCCCCCCCC1[S+]([O-])c1ccccc1` (centres undefined), the GI50 with Hs-578T is 44.5 µM (inactive); in the experiment with NCI-H226, 44.7 µM (inactive); with CAKI-1 it was > 100 µM (inactive); in the experiment on U-251, 21 µM (inactive); in the experiment on COLO 205 it was 25.6 µM (inactive); in the experiment with UACC-257, 47.1 µM (inactive). The GI50 in the experiment on MCF7 is 30.1 µM (inactive); with NCI/ADR-RES, 34.4 µM (inactive); in the experiment on SF-539, 21 µM (inactive); with NCI-H460, 58.9 µM (inactive); with A549, 33.3 µM (inactive); with IGROV-1, 16 µM (inactive). The GI50 with HOP-92 is > 100 µM (inactive); with SF-268 it was 27.7 µM (inactive); with SK-OV-3, 38 µM (inactive); in the experiment with LOX IMVI, 28.8 µM (inactive); with MDA-N, 34 µM (inactive); in the experiment on DU-145, 49.1 µM (inactive).

As for `Cc1cc(S(=O)(=O)NC2=Nc3cccc4cccc(c34)N2)c(S)cc1Cl`, the GI50 is > 100 µM (inactive) in the experiment with Hs-578T; > 100 µM (inactive) in the experiment with NCI-H226; > 100 µM (inactive) with CAKI-1; 50 µM (inactive) in the experiment on U-251; 84.7 µM (inactive) in the experiment on COLO 205; > 100 µM (inactive) in the experiment on UACC-257. Moreover, the GI50 was > 100 µM (inactive) in the experiment on MCF7; > 100 µM (inactive) in the experiment on NCI/ADR-RES; > 100 µM (inactive) with SF-539; 55.6 µM (inactive) in the experiment with NCI-H460; 55.1 µM (inactive) with A549; 63.5 µM (inactive) in the experiment with IGROV-1. Also, the GI50 in the experiment with HOP-92 was > 100 µM (inactive); in the experiment with SF-268, > 100 µM (inactive); in the experiment with LOX IMVI it was 70.5 µM (inactive); in the experiment with OVCAR-8, > 100 µM (inactive); with KM12, 48.1 µM (inactive); in the experiment on MDA-N, 0.316 µM (active). For the same molecule, the GI50 in the experiment with DU-145 is > 100 µM (inactive).

Turning to `C=CC(C)(C)NC(C(=O)N1CCC[C@H]1c1nc(-c2nc(C(=O)OCC=C(C)C)c(C)o2)c(C)o1)C(C)C` (some centres undefined), the GI50 in the experiment with Hs-578T was 81.5 µM (inactive); in the experiment with NCI-H226, > 48.8 µM (inactive); with CAKI-1, > 55.2 µM (inactive); in the experiment with U-251, > 48.2 µM (inactive); in the experiment on COLO 205, 34 µM (inactive); with UACC-257 it was > 58.7 µM (inactive). For the same molecule, the GI50 in the experiment on MCF7 was > 53.8 µM (inactive); in the experiment with NCI/ADR-RES, > 55 µM (inactive); with SF-539, > 48.2 µM (inactive); with NCI-H460, 31.9 µM (inactive); with A549, > 58.9 µM (inactive); in the experiment with IGROV-1 it was 52.1 µM (inactive). The GI50 was 23.3 µM (inactive) with HOP-92; > 100 µM (inactive) with SF-268; > 83 µM (inactive) in the experiment on SK-OV-3; > 49.2 µM (inactive) with LOX IMVI; > 58.6 µM (inactive) in the experiment on OVCAR-8; > 54.2 µM (inactive) with KM12. Further, the GI50 in the experiment on MDA-N was 23.9 µM (inactive); in the experiment on DU-145, > 84.7 µM (inactive).

By GI50 is commonly meant the concentration giving 50% growth inhibition.
